Experimental data published in PubChem BioAssay AID743127 (The Scripps Research Institute Molecular Screening Center, 2013).
Active and inactive are the calls of the source. The rule behind the calls is not given here.

Test: cell viability reduction in serum-free and serum medium – absorbance readout, serum-free and serum-supplemented medium, cytotoxicity control for LYPLA1/LYPLA2 inhibitor project, late-stage follow-up (AID 743127)
Settings: serum-free or serum medium

O=C(ON1C(=O)C2CN(C(=O)N3CCCCC3)CCN2C1=O)N1CCC(CCc2ccc(Cl)cc2)CC1 (centres undefined)
CC50 (in serum-free medium): > 10 µM (inactive) | CC50 (in serum-supplemented medium): > 10 µM (inactive)

O=C(ON1C(=O)C2CN(C(=O)N3CCOCC3)CCN2C1=O)N1CCC(CCc2ccc(Cl)cc2)CC1 (centres undefined)
CC50 (in serum-free medium): > 100 µM (inactive) | CC50 (in serum-supplemented medium): 100 µM (inactive)
